± gives the standard deviation of the averaged measurements.
Assays:
[1] = compound: COc1cc2nccc(Oc3ccc(NC(=O)C4(C(=O)Nc5ccc(F)cc5)CC4)cc3)c2cc1OC [CABOZANTINIB]; test: surviving fraction relative to DMSO-only wells; higher = less growth inhibition; conditions: exposure time: 5 days
Method in brief: (§1)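 Surviving fraction is CellTiter-Glo luminescence divided by the median of wells given DMSO only. For this, log-phase tumour cell lines went into 384-well plates at 250–500 cells per well and, 24 hours later, into five days of continuous inhibitor exposure at 0.5, 1, 5, 10, 50, 100, 500 and 1000 nM. Lines were screened three times and retained only if replicate Pearson r >0.7 and median Z' >0.3.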

[2] = compound: COc1cc2nccc(Oc3ccc(NC(=O)NC4CC4)c(Cl)c3)c2cc1C(N)=O [LENVATINIB]; test: as above; conditions: exposure time: 5 days
Method in brief: as §1

Row | Test System | surviving fraction ([1]; 0.5 nM) | surviving fraction ([1]; 1 nM) | surviving fraction ([1]; 5 nM) | surviving fraction ([1]; 10 nM) | surviving fraction ([1]; 50 nM) | surviving fraction ([1]; 100 nM) | surviving fraction ([1]; 500 nM) | surviving fraction ([1]; 1000 nM) | surviving fraction ([2]; 0.5 nM) | surviving fraction ([2]; 1 nM) | surviving fraction ([2]; 5 nM) | surviving fraction ([2]; 10 nM) | surviving fraction ([2]; 50 nM) | surviving fraction ([2]; 100 nM) | surviving fraction ([2]; 500 nM) | surviving fraction ([2]; 1000 nM)
1 | SYO1 SYNOVIAL | 0.92 ± 0.027 | 0.938 ± 0.042 | 0.929 ± 0.037 | 0.859 ± 0.02 | 0.807 ± 0.022 | 0.818 ± 0.044 | 0.721 ± 0.041 | 0.694 ± 0.031 | 0.942 ± 0.11 | 0.962 ± 0.025 | 0.918 ± 0.017 | 0.889 ± 0.042 | 0.768 ± 0.079 | 0.667 ± 0.042 | 0.528 ± 0.031 | 0.504 ± 0.02
2 | VCAP PROSTATE | 0.921 ± 0.16 | 1.01 ± 0.046 | 1.05 ± 0.037 | 0.996 ± 0.07 | 1.06 ± 0.043 | 1.026 ± 0.004 | 0.992 ± 0.065 | 0.871 ± 0.056 | 1.03 ± 0.038 | 1.04 ± 0.12 | 1.17 ± 0.15 | 1.12 ± 0.1 | 1.1 ± 0.11 | 1.17 ± 0.079 | 0.962 ± 0.097 | 0.97 ± 0.078
3 | HELA CERVIX | 1.01 ± 0.028 | 0.98 ± 0.021 | 0.999 ± 0.033 | 0.955 ± 0.042 | 1.08 ± 0.036 | 1.06 ± 0.05 | 1.11 ± 0.088 | 1.1 ± 0.028 | 1.06 ± 0.088 | 1.04 ± 0.095 | 1.05 ± 0.061 | 1.05 ± 0.071 | 1.17 ± 0.04 | 1.19 ± 0.1 | 1.19 ± 0.1 | 1.17 ± 0.044
4 | SAOS2 BONE | 1.13 ± 0.038 | 1.12 ± 0.069 | 1.18 ± 0.12 | 1.14 ± 0.015 | 1.17 ± 0.14 | 1.14 ± 0.14 | 0.993 ± 0.073 | 1.01 ± 0.14 | 1.1 ± 0.024 | 1.07 ± 0.0063 | 1.17 ± 0.029 | 1.16 ± 0.047 | 1.12 ± 0.046 | 1.15 ± 0.075 | 1.062 ± 0.0029 | 1.011 ± 0.0035
5 | HCC1395 BREAST | 1.12 ± 0.073 | 1.02 ± 0.06 | 1.14 ± 0.045 | 1.23 ± 0.034 | 1.38 ± 0.14 | 1.33 ± 0.053 | 1.13 ± 0.085 | 1.2 ± 0.086 | 0.937 ± 0.018 | 0.948 ± 0.079 | 0.932 ± 0.05 | 1.03 ± 0.058 | 1 ± 0.11 | 1.03 ± 0.045 | 0.999 ± 0.098 | 0.845 ± 0.075

From the supplement of paper PMC6045584
